Data on 7 molecules can be found in patent US20030054980A1, “Ceruloplasmin and uses thereof in neurodegenerative related conditions” (priority 2000, published 2003).

The test system of data set [1] is P19 neurons. In words: Inhibition of CP-induced neuronal aggregation. Conditions: for inhibition of CP-induced aggregation, inhibitors tested individually: 6-7 TIU/mL or half this concentration, 3.8 μM CP; for inhibition of CP-induced neuronal aggregation: 6-7 trypsin inhibitory U/mL each, added 1 h before 3.8 μM CP, morphology and dye penetration analysis. The format is cell-based, mouse. The method, then:
Protease inhibitors were added 1 h before CP.
Day 4 P19 neurons were plated in 24- or 48-well plates in prevision of dye penetration analysis. After treatment with CP or other agents, cells were incubated for 5 h with 500 μL of a solution containing one part of ALAMARBLUE™ (Medicorp Inc., Montreal, Quebec, Canada) and nine parts of fresh supplemented Neurobasal medium. This dye is reduced to a fluorescent derivative by metabolic activity of living cells. At the end of incubation, the fluorescence of the culture medium was monitored at 590 nm, using 540 nm as the excitation wavelength.

Data set [2] concerns P19 neurons. As to the kind of experiment: Pro-aggregative effect on P19 neurons (culture morphology, surfaces not occupied by cells). Particulars: for Morphological change: 24 h; for induction of neuronal aggregation (text summary of Table 1): concentrations of Table 1, copper equivalent to (His2Cu: or higher than) that in CP.
Experimental: Undifferentiated P19 cells were propagated in complete medium containing alpha-modified Eagle's minimal essential medium (α-MEM; Gibco-BRL, Burlington, Ontario) supplemented with 10% heat-inactivated fetal bovine serum (Cansera International, Rexdale, Ontario), 2.5 U/mL penicillin and 2.5 μg/mL streptomycin (Sigma-Aldrich). Cells were maintained at 37° C. in a humidified atmosphere of 5% CO2 and passaged every two days on non-coated tissue culture dishes. To achieve neuronal differentiation, P19 cells were seeded in bacteriological-grade petri dishes at a density of 0.9×10^5 cells/mL, and grown as aggregates, during 4 days, in complete medium containing 0.5 μM RA (Sigma-Aldrich). At day 4, aggregates were dissociated by incubation for 3 min, at room temperature, with 0.025% trypsin (250 Nα-benzoyl-L-Arg-ethyl ester (BAEE) unit per 15×10^6 cells; Sigma-Aldrich) in phosphate buffer saline (PBS) containing 1 mM EDTA, and digestion stopped by adding an equal volume of complete α-MEM medium. The resulting cellular suspensions were passaged by pipetting and subjected to two wash-and-centrifuge cycles, and individualized cells (neurons) were transferred (1500-1800 cells/mm^2) to gelatinized tissue culture dishes or multiwell plates containing NEUROBASAL™ medium (Gibco-BRL) supplemented with B27™ supplement (Gibco-BRL) and 0.5 mM L-glutamine, but no RA. Gelatinization of culture surfaces was done by incubation with 0.1% gelatin for 0.5 h at 22° C., followed by several washes with PBS to remove unbound protein. For comparison purposes, solutions of 2% gelatin, 10 μg/mL fibronectin, 10 μg/mL laminin and 5 mg/mL CP (in this case, in a proportion of 50 μL per cm^2) were also used for coating. Differentiation to fibroblasts was done by culturing P19 cells as monolayers, for 4 days, in complete medium containing RA. Cells were trypsinized every 2 days and replated in non-coated tissue culture dishes each time. From day 4 and after, cells were cultured in complete medium without RA.
At 3, 24 or 48 h after plating, P19 neurons were incubated for 24 h in a fresh provision of supplemented Neurobasal medium not containing (control) or containing CP or another agent. Protease inhibitors were added 1 h before CP. Freshly individualized cells of the other cell types tested were let to adhere to culture surfaces, in their normal culture medium (containing serum), for times indicated: undifferentiated P19 cells and their fibroblast derivatives (both for 3 and 24 h), rat smooth muscle cells (7 days), and rat hepatocytes (3 h). Afterwards, cells were extensively rinsed with PBS and incubated for 24 h in supplemented Neurobasal medium in the absence or presence of CP. After treatment with CP or other agents, cells were examined for morphology, viability, ALAMARBLUE™ dye penetration and/or apoptosis, as indicated below.
Morphological analysis was done by inversion microscopy (NIKKON™ TMS), using phase-contrast objectives and a camera (NIKKON™ F70).
The test system of the next data set is resorufin-labeled casein. In words: Detection of proteolytic activity with resorufin-labeled casein. The format is biochemical. Particulars: culture media conditioned by cells, in all cases. The protocol: Evaluation of proteolytic activity in CP preparations or in cell culture media was done with resorufin-labeled casein (universal protease chromogenic substrate; Roche Diagnostics). Aliquots (100 μL) of CP solutions (about 13 mg/mL) or of culture media of cells after 24 h treatment with and without CP were incubated at 37° C. for various times (up to 22 h), with 50 μL of resorufin-labeled casein solution provided by the manufacturer and 50 μL of 0.2 M Tris-HCl, pH 7.8 containing 0.02 M CaCl2. The reaction was stopped by adding 480 μL of 5% trichloroacetic acid. After 10 min of incubation at 37° C. and 5 min of centrifugation, 400 μL of the resulting supernatants were mixed with 600 μL of 0.5 M Tris-HCl, pH 8.8, and absorbance read at 574 nm. Alternately, resorufin-labeled casein was added to culture media (50 μL substrate for each 150 μL supplemented NEUROBASAL™ medium) while cells were being treated with CP. Culture media were removed at various times (up to 24 h) and subjected to acid precipitation and spectrophotometric measurement as indicated above. Trypsin (10100 U BAEE/mg; Sigma-Aldrich) was used as a standard.

[3] abbreviates: 1.14 to 49.2 μM, day 4 P19 neurons on gelatin.

For the molecule “Bovine serum albumin: serum protein that can transport copper ions”, the “inhibition of CP-induced neuroaggregation” value in the data set on P19 neurons [1] (albumin at 3.6 μM) was “did not inhibit”. Further, the Morphological change result with P19 neurons [2] (0.3 to 7.5 μM) is listed as “no aggregation”. Also, the “induction of neuronal aggregation (text summary of Table 1)” value (“induction of neuronal aggregation” below) in the data set with P19 neurons [2] is “failed to induce-aggregation”.
Regarding `NC(Cc1c[nH]cn1)C(=O)[O-].NC(Cc1c[nH]cn1)C(=O)[O-].[Cu+2]` (stereo not shown) [(His)2Cu complex], the Morphological change entry with P19 neurons [2] (23 to 390 μM) is given as “no aggregation”. For the same molecule, the “induction of neuronal aggregation” value with P19 neurons [2] is recorded as “did not induce neuronal aggregation”.
In the case of aprotinin, the “hydrolysis of resorufin-labeled casein” value with resorufin-labeled casein is given as “completely abolished hydrolysis”. In addition, in the data set with P19 neurons [1], the “inhibition of CP-induced aggregation, inhibitors tested individually” value is “Complete inhibition of aggregation” and the “inhibition of CP-induced neuronal aggregation” value was “completely hindered”.
Turning to `[Cl][Cu][Cl]` [CuCI2, CuCl2], the results for the Morphological change result in the data set on P19 neurons [2] (246 μM) and in the data set on P19 neurons [2] (setting [3]) were “cell death” and “no aggregation”, respectively. Moreover, in the data set with P19 neurons [2], the “induction of neuronal aggregation” value is “did not induce neuronal aggregation”.
Turning to `O=S(=O)([O-])[O-].[Cu+2]` [CuSO4], the Morphological change result is “cell death” in the data set with P19 neurons [2] (246 μM) and “no aggregation” with P19 neurons [2] (setting [3]). In the data set with P19 neurons [2], the “induction of neuronal aggregation” value is recorded as “did not induce neuronal aggregation”.

B1: Bovine serum amineoxidase: 180 kDa circulating non-blue copper protein (protein, UniProt Q29437 17-762, looked up)
Primary amine oxidase, liver …: REEGGVGSEEGVGKQCHPSLPPRCPSRSPSDQPWTHPDQSQLFADLSREELTTVMSFLTQQLGPDLVDAAQARPSDNCVFSVELQLPPKAAALAHLDRGSPPPAREALAIVFFGGQPQPNVTELVVGPLPQPSYMRDVTVERHGGPLPYYRRPVLLREYLDIDQMIFNRELPQAAGVLHHCCSYKQGGQKLLTMNSAPRGVQSGDRSTWFGIYYNITKGGPYLHPVGLELLVDHKALDPADWTVQKVFFQGRYYENLAQLEEQFEAGQVNVVVIPDDGTGGFWSLKSQVPPGPTPPLQFHPQGPRFSVQGNRVASSLWTFSFGLGAFSGPRVFDVRFQGERLAYEISLQEAGAVYGGNTPAAMLTRYMDSGFGMGYFATPLIRGVDCPYLATYMDWHFVVESQTPKTLHDAFCVFEQNKGLPLRRHHSDFLSHYFGGVAQTVLVFRSVSTMLNYDYVWDMVFYPNGAIEVKLHATGYISSAFLFGAARRYGNQVGEHTLGPVHTHSAHYKVDLDVGGLENWVWAEDMAFVPTAIPWSPEHQIQRLQVTRKQLETEEQAAFPLGGASPRYLYLASKQSNKWGHPRGYRIQTVSFAGGPMPQNSPMERAFSWGRYQLAITQRKETEPSSSSVFNQNDPWTPTVDFSDFINNETIAGKDLVAWVTAGFLHIPHAEDIPNTVTVGNGVGFFLRPYNFFDQEPSMDSADSIYFREGQDAGSCEINPLACLPQAATCAPDLPVFSHGGYPEY
Take B1: the Morphological change entry in the data set with P19 neurons [2] (0.28 to 0.56 μM) is “no aggregation”. In addition, the “induction of neuronal aggregation” value in the data set with P19 neurons [2] is “did not induce aggregation”.

B2: SBTI: soybean trypsin inhibitor, serine protease inhibitor (protein, UniProt P01070 25-205, looked up)
Trypsin inhibitor A: DFVLDNEGNPLENGGTYYILSDITAFGGIRAAPTGNERCPLTVVQSRNELDKGIGTIISSPYRIRFIAEGHPLSLKFDSFAVIMLCVGIPTEWSVVEDLPEGPAVKIGENKDAMDGWFRLERVSDDEFNNYKLVFCPQQAEDDKCGDIGISIDHDDGTRRLVVSKNKPLVVQFQKLDKESL
In the case of B2, the “hydrolysis of resorufin-labeled casein” value in the data set on resorufin-labeled casein is reported as “completely abolished hydrolysis”. For the same molecule, in the data set with P19 neurons [1], the “inhibition of CP-induced aggregation, inhibitors tested individually” value is “Complete inhibition of aggregation” and the “inhibition of CP-induced neuronal aggregation” value was “completely hindered”.
